The text below walks through data of US7071226B1, “Amino-functionalized 1,2,4-trioxanes useful as antimalarial agents and process for preparation thereof” (Council of Scientific and Industrial Research, priority 2004, dated 2006).

Series [1] has as its system multidrug resistant strain of Plasmodium yoelii Nigeriensis. As to the kind of experiment: Antimalarial activity against multidrug resistant P. yoelii in Swiss mice (4-day treatment, observed till day 28). Type of series: in vivo. As to conditions: Swiss mice; for inhibition in vivo at 96 mg/kg/day / responders at 96 mg/kg/day / inhibition in vivo at 24 mg/kg/day / inhibition in vivo at 48 mg/kg/day / responders at 24 mg/kg/day / responders at 48 mg/kg/day: Plasmodium yoelii; for inhibition in vivo at 96 mg/kg/day / inhibition in vivo at 24 mg/kg/day / inhibition in vivo at 48 mg/kg/day: 96 h, read-out: % Suppression on Day 4; for inhibition in vivo at 96 mg/kg/day / inhibition in vivo at 24 mg/kg/day / inhibition in vivo at 48 mg/kg/day / % Suppression on Day 4: day 0-3, in groundnut oil; for responders at 96 mg/kg/day / responders at 24 mg/kg/day / responders at 48 mg/kg/day: 672 h, read-out: Mice alive on day-28 (converted); for responders at 96 mg/kg/day / responders at 24 mg/kg/day / responders at 48 mg/kg/day / Mice alive on day-28: day 0-3. Here is the method: The antimalarial activity of the test compounds was evaluated in rodent using multidrug resistant strain of Plasmodium yoelii Nigeriensis in Swiss mice.
Random bred Swiss mice of either sex (20±2 gm) were inoculated intraperitoneally with 1×10^5 P. yoelii (MDR) parasites on day zero. Treatments with test compounds were administered to group of 5 mice each at different dose levels ranging between 12–96 mg/kg/day. Treatment was administered in groundnut oil intramuscularly and orally for 4 consecutive days (day 0–3). Blood smears from experimental mice were observed on day 4 and 7, day 10 and thereafter at regular intervals till day 28 or death of animal. Parasitaemia level on day 4 was compared with vehicle control group and percent suppression of parasitaemia in treated groups was calculated. […] The dose at which no parasitaemia develop during the observation period was reported as curative dose.

Setting [2] is: 24 mg/kg/day, oral, 24 mg/kg/day.
Setting [3] is: 48 mg/kg/day, oral, 48 mg/kg/day.

Structures are written as SMILES. Where two headings read alike, the source gives them in different places.

The melting point is the temperature of the solid-liquid transition. `C=C(c1ccccc1)C1COC2(CCC(Nc3ccc(F)cc3)CC2)OO1` (stereo not drawn) showed a melting point of 130 to 132 °C.
In the case of `C=C(c1ccc(Cl)cc1)C1COC2(CCC(Nc3ccc4c(c3)-c3ccccc3C4)CC2)OO1` (stereo not drawn), the melting point lay in the range of 166 to 168 °C.
Same read-out and setting: as for `C=C(c1ccc(OC)cc1)C1COC2(CCC(Nc3ccc(OC)cc3)CC2)OO1` (stereo not drawn), the figure is 123 to 124 °C.
As to `C=C(c1ccc(OC)cc1)C1COC2(CCC(Nc3ccccc3)CC2)OO1` (stereo not drawn) [Compound 4da, {3-[1-(4-Methoxy-Phenyl)-Vinyl]-1,2,5-Trioxa-Spiro[5.5]undec-9-yl}-Phenyl-Amine], the inhibition in vivo at 96 mg/kg/day in series [1] (im, im) worked out at 81%; in series [1] (po, oral), 100%. Besides, the responders at 96 mg/kg/day in series [1] (im, im) was 0%; in series [1] (po, oral), 0%.
`C=C(c1ccc(OC)cc1)C1COC2(CCC(Nc3ccc(Cl)cc3)CC2)OO1` (stereo not drawn) [Compound 4dc, (4-Chloro-Phenyl)-{3-[1-(4-Methoxy-Phenyl)-Vinyl]-1,2,5-Trioxa-Spiro[5.5]undec-9-yl}-Amine]: in series [1] (im, im), the inhibition in vivo at 96 mg/kg/day stood at 100% and the responders at 96 mg/kg/day was 80%. In series [1] (po, 24 mg/kg/day, oral), the inhibition in vivo at 24 mg/kg/day was found to be 100% and the responders at 24 mg/kg/day is 80%. Besides, in series [1] (po, 48 mg/kg/day, oral), the inhibition in vivo at 48 mg/kg/day stood at 100% and the responders at 48 mg/kg/day is 100%. In addition, in series [1] (po, oral), the inhibition in vivo at 96 mg/kg/day turned out to be 100% and the responders at 96 mg/kg/day was 100%.
For `C=C(c1ccc(OC)cc1)C1COC2(CCC(Nc3cc(Cl)cc(Cl)c3)CC2)OO1` (stereo not drawn) [Compound 4dd, (3,5-Dichloro-Phenyl)-{3-[1-(4-Methoxy-Phenyl)-Vinyl]-1,2,5-Trioxa-Spiro[5.5]undec-9-yl}-Amine], in series [1] (po, oral), the inhibition in vivo at 96 mg/kg/day came out at 100% and the responders at 96 mg/kg/day was 80%.
Take `C=C(c1ccc(OC)cc1)C1COC2(CCC(Nc3cccc4ccccc34)CC2)OO1` (stereo not drawn) [Compound 4df, {3-[1-(4-Methoxy-phenyl)-vinyl]-1,2,5-trioxa-spiro[5.5]undec-9-yl}-naphthalen-1-yl-amine]: in series [1] (po, 48 mg/kg/day, oral), the inhibition in vivo at 48 mg/kg/day worked out at 100% and the responders at 48 mg/kg/day is 40%. In series [1] (po, oral), the inhibition in vivo at 96 mg/kg/day is 100% and the responders at 96 mg/kg/day was 100%.
For the molecule `C=C(c1ccc(OC)cc1)C1COC2(CCC(Nc3ccccc3-c3ccccc3)CC2)OO1` (stereo not drawn) [Compound 4dg, Biphenyl-2-yl-{3-[1-(4-methoxy-phenyl)-vinyl]-1,2,5-trioxa-spiro[5.5]undec-9-yl}-amine], the inhibition in vivo at 24 mg/kg/day in series [1] (po, 24 mg/kg/day, oral) came to 91%. Also, the inhibition in vivo at 48 mg/kg/day in series [1] (po, 48 mg/kg/day, oral) is 100%. The “Mice alive on day-28” value in series [1] (setting [2]) is on record as 1/5; in series [1] (setting [3]), 3/5.
As to `C=C(c1ccc(OC)cc1)C1COC2(CCC(Nc3ccccc3-c3ccccc3)CC2)OO1` (stereo not drawn) [Compound 4dh, Biphenyl-2-yl-{3-[1-(4-methoxy-phenyl)-vinyl]-1,2,5-trioxa-spiro[5.5]undec-9-yl}-amine], the “% Suppression on Day 4” value in series [1] (setting [2]) was determined as 100%; in series [1] (48 mg/kg/day, oral), 100%. Also, the “Mice alive on day-28” value in series [1] (setting [2]) and in series [1] (setting [3]) was 5/5 throughout.
Regarding `C=C(c1ccc(OC)cc1)C1COC2(CCC(Nc3cccc(C(F)(F)F)c3)CC2)OO1` (stereo not drawn) [Compound 4dm, {3-[1-(4-Methoxy-Phenyl)-Vinyl]-1,2,5-Trioxa-Spiro[5.5]undec-9-yl}-(3-Trifluoromethyl-Phenyl)-Amine], in series [1] (im, im), the inhibition in vivo at 96 mg/kg/day is 100% and the responders at 96 mg/kg/day is 0%. Also, in series [1] (po, 24 mg/kg/day, oral), the inhibition in vivo at 24 mg/kg/day was 100% and the responders at 24 mg/kg/day is 100%. Besides, in series [1] (po, 48 mg/kg/day, oral), the inhibition in vivo at 48 mg/kg/day worked out at 100% and the responders at 48 mg/kg/day was 100%. Moreover, in series [1] (po, oral), the inhibition in vivo at 96 mg/kg/day was found to be 100% and the responders at 96 mg/kg/day was 100%.
`C=C(c1ccc(C)cc1)C1COC2(CCC(Nc3ccccc3)CC2)OO1` (stereo not drawn) [Compound 4ea, Phenyl-[3-(1-p-Tolyl-Vinyl)-1,2,5-Trioxa-Spiro[5.5]undec-9-yl]-Amine]: in series [1] (im, im), the inhibition in vivo at 96 mg/kg/day was 96% and the responders at 96 mg/kg/day is 0%. In addition, in series [1] (po, oral), the inhibition in vivo at 96 mg/kg/day was found to be 100% and the responders at 96 mg/kg/day is 100%.
As to `C=C(c1ccc(C)cc1)C1COC2(CCC(Nc3ccc(OC)cc3)CC2)OO1` (stereo not drawn) [Compound 4eb, (4-Methoxy-Phenyl)-[3-(1-p-Tolyl-Vinyl)-1,2,5-Trioxa-Spiro[5.5]undec-9-yl]-Amine], the inhibition in vivo at 96 mg/kg/day in series [1] (im, im) was found to be 93%; in series [1] (po, oral), 100%. Moreover, the responders at 96 mg/kg/day in series [1] (im, im) is 0%; in series [1] (po, oral), 100%.
With `C=C(c1ccc(C)cc1)C1COC2(CCC(Nc3ccc(Cl)cc3)CC2)OO1` (stereo not drawn) [Compound 4ec, (4-Chloro-Phenyl)-[3-(1-p-Tolyl-Vinyl)-1,2,5-Trioxa-Spiro[5.5]undec-9-yl]-Amine], in series [1] (po, oral), the inhibition in vivo at 96 mg/kg/day came out at 100% and the responders at 96 mg/kg/day was 100%.
Take `C=C(c1ccc(C)cc1)C1COC2(CCC(Nc3cc(Cl)cc(Cl)c3)CC2)OO1` (stereo not drawn) [Compound 4ed, (3,5-Dichloro-Phenyl)-[3-(1-Tolyl-Vinyl)-1,2,5-Trioxa-Spiro[5.5]undec-9-yl]-Amine]: the “Mice alive on day-28” value in series [1] (24 mg/kg/day, oral) was 0/5; in series [1] (setting [3]), 4/5. The “% Suppression on Day 4” value in series [1] (setting [2]) is listed as 95%; in series [1] (48 mg/kg/day, oral), 100%.
The matching figures for `C=C(c1ccc(C)cc1)C1COC2(CCC(Nc3cc(Cl)cc(Cl)c3)CC2)OO1` (stereo not drawn) [Compound 4ee, (3,5-Dichloro-Phenyl)-[3-(1-Tolyl-Vinyl)-1,2,5-Trioxa-Spiro[5.5]undec-9-yl]-Amine]: 0/5, 2/5, 81% and 100%.
Take `C=C(c1ccc(C)cc1)C1COC2(CCC(Nc3cccc4ccccc34)CC2)OO1` (stereo not drawn) [Compound 4eg, Naphthalen-1-yl-[3-(1-p-Tolyl-Vinyl)-1,2,5-Trioxa-Spiro[5.5]undec-9-yl]-Amine]: in series [1] (po, oral), the inhibition in vivo at 96 mg/kg/day came to 100% and the responders at 96 mg/kg/day was 100%.
Consider `C=C(c1ccc(C)cc1)C1COC2(CCC(Nc3ccc(-c4ccccc4)cc3)CC2)OO1` (stereo not drawn) [Compound 4ej, Biphenyl-4-yl-[3-(1-p-tolyl-vinyl)-1,2,5-trioxa-spiro[5.5]undec-9-yl]-amine], for which, in series [1] (im, im), the inhibition in vivo at 96 mg/kg/day was 69% and the responders at 96 mg/kg/day was 0%. Also, in series [1] (po, 48 mg/kg/day, oral), the inhibition in vivo at 48 mg/kg/day stood at 100% and the responders at 48 mg/kg/day is 40%. Besides, in series [1] (po, oral), the inhibition in vivo at 96 mg/kg/day is 100% and the responders at 96 mg/kg/day is 100%.
As to `C=C(c1ccc(C)cc1)C1COC2(CCC(Nc3cccc(C(F)(F)F)c3)CC2)OO1` (stereo not drawn) [Compound 4en, [3-(1-p-Tolyl-vinyl)-1,2,5-trioxa-spiro[5.5]undec-9-yl]-(3-trifluoromethyl-phenyl)-amine], in series [1] (po, oral), the inhibition in vivo at 96 mg/kg/day was determined as 100% and the responders at 96 mg/kg/day is 60%.
On to `CCO[C@H]1O[C@@H]2O[C@@]3(C)CC[C@H]4[C@H](C)CC[C@@H]([C@H]1C)[C@@]24OO3` [β-Arteether, reference compound], for which the “Mice alive on day-28” value was 1/5 in series [1] (24 mg/kg/day, oral) and 5/5 in series [1] (48 mg/kg/day, oral). Also, the “% Suppression on Day 4” value in series [1] (24 mg/kg/day, oral) is reported as 100%; in series [1] (48 mg/kg/day, oral) it was 100%.
